Like-named read-outs stand apart in the source and are kept apart here. e = 2'-O-(2-methoxyethyl) (MOE); d = 2'-deoxy (DNA)

The values that follow come from patent US20230263822A1, “MODULATION OF FACTOR 11 EXPRESSION” (Ionis Pharmaceuticals, Inc., priority 2008, published 2023).

The conditions of series [1]: rat, in vivo, sc, 50 mg/kg.
The conditions of series [2]: mouse, in vivo, sc, 50 mg/kg.
For series [3] the following is noted: rat, in vivo, sc, 50 mg/kg. The source holds these as a separate data set.
For series [4] the following is noted: mouse, in vivo, sc, 50 mg/kg. This is another data set of the same source.
For series [5] the following is noted: rat, in vivo, sc, 50 mg/kg. This is another data set of the same source.
The conditions of series [6]: mouse, in vivo, sc, 50 mg/kg. The source holds these as a separate data set.
The conditions of series [7]: mouse, in vivo, sc, 50 mg/kg. This is another data set of the same source.

Regarding “ISIS 412224: 5-10-5 MOE gapmer GCATTGGTGCACAGTTTCTG (sugars from the 5' end e5 d10 e5, backbone and methylation of C not given here)”, in series [1], the HCT is 42%, the Lymphocyte came out at 16807, the Neutrophil is 1865 and the Platelets is on record as 685. In series [1], the RBC is recorded as 7.4 10^6/μL, the WBC is given as 20 10^3/μL and the hemoglobin turned out to be 13.4 g/dL. For the same substance, the BUN in series [2] is listed as 29 mg/dL. In series [3], this substance displayed an ALT of 84 IU/L, an AST of 132 IU/L, an Albumin of 4 and a Bilirubin of 0.12 mg/dL. Besides, in series [4], the HCT is given as 50%, the Lymphocyte amounted to 6284 cells/μL, the Neutrophil amounted to 2107 cells/μL and the Platelets is given as 647 10^3/μL. In series [4], the RBC is on record as 10 10^6/μL, the WBC was 9 10^3/μL, the hemoglobin is 15 g/dL and the monocytes was determined as 195 cells/μL. In series [5], the BUN turned out to be 24 mg/dL, the Creatinine is listed as 44 mg/dL, the Total urine protein came to 171 mg/dL and the Urine protein/creatinine ratio is 3.8. In series [6], this substance displayed an ALT of 214 IU/L, an AST of 183 IU/L, a Bilirubin of 0.19 mg/dL and a Cholesterol of 114 mg/dL.
In series [1], “ISIS 416861: MOE gapmer, nucleobases 1275 to 1318 of SEQ ID NO: 1 (Table 8) (antisense GCGGACGGCATTGGTGCACA; MOE gapmer, wing and gap sizes not given here)” yielded an HCT of 45%, a Lymphocyte of 12865, a Neutrophil of 1813 and a Platelets of 1008. Further, in series [1], the RBC was 7.7 10^6/μL, the WBC is given as 15 10^3/μL and the hemoglobin worked out at 14.6 g/dL. In series [2], this substance had a BUN of 23 mg/dL. In series [3], this substance registered an ALT of 89 IU/L, an AST of 154 IU/L, an Albumin of 5 and a Bilirubin of 0.15 mg/dL. Also, in series [4], the HCT was 48%, the Lymphocyte amounted to 5119 cells/μL, the Neutrophil was found to be 1122 cells/μL and the Platelets is on record as 836 10^3/μL. In series [4], the RBC is 9 10^6/μL, the WBC is on record as 7 10^3/μL, the hemoglobin stood at 14 g/dL and the monocytes came to 219 cells/μL. Also, in series [5], the BUN amounted to 22 mg/dL, the Creatinine is given as 39 mg/dL, the Total urine protein worked out at 205 mg/dL and the Urine protein/creatinine ratio was 5.1. In series [6], this substance returned an ALT of 38 IU/L, an AST of 85 IU/L, a Bilirubin of 0.27 mg/dL and a Cholesterol of 133 mg/dL.
With “ISIS 416857: MOE gapmer, nucleobases 1275 to 1318 of SEQ ID NO: 1 (Table 8) (antisense CGGCATTGGTGCACAGTTTC; MOE gapmer, wing and gap sizes not given here)”, in series [2], the BUN was 17 mg/dL. For the same substance, in series [4], the HCT is 53%, the Lymphocyte was 3697 cells/μL, the Neutrophil is on record as 1334 cells/μL and the Platelets is recorded as 603 10^3/μL. In series [4], the RBC was 10 10^6/μL, the WBC is 6 10^3/μL, the hemoglobin came to 15 g/dL and the monocytes worked out at 215 cells/μL. Besides, in series [6], the ALT worked out at 370 IU/L, the AST amounted to 269 IU/L, the Bilirubin is 0.22 mg/dL and the Cholesterol is reported as 94 mg/dL.
Substance “ISIS 416854: MOE gapmer, nucleobases 1275 to 1318 of SEQ ID NO: 1 (Table 8) (antisense ATTGGTGCACAGTTTCTGGC; MOE gapmer, wing and gap sizes not given here)” had a BUN in series [2] of 27 mg/dL. Moreover, in series [4], the HCT is 43%, the Lymphocyte came out at 9375 cells/μL, the Neutrophil turned out to be 2082 cells/μL and the Platelets is given as 1060 10^3/μL. Also, in series [4], the RBC is on record as 9 10^6/μL, the WBC is given as 12 10^3/μL, the hemoglobin is 13 g/dL and the monocytes worked out at 455 cells/μL. In series [6], this substance gave an ALT of 1613 IU/L, an AST of 1140 IU/L, a Bilirubin of 0.21 mg/dL and a Cholesterol of 199 mg/dL.
In series [2], “ISIS 416849: MOE gapmer, nucleobases 1275 to 1318 of SEQ ID NO: 1 (Table 8) (antisense GCACAGTTTCTGGCAGGCCT; MOE gapmer, wing and gap sizes not given here)” came in with a BUN of 23 mg/dL. In series [4], the HCT turned out to be 48%, the Lymphocyte is given as 6967 cells/μL, the Neutrophil is reported as 1522 cells/μL and the Platelets is given as 744 10^3/μL. Moreover, in series [4], the RBC is reported as 9 10^6/μL, the WBC is listed as 9 10^3/μL, the hemoglobin is 14 g/dL and the monocytes worked out at 253 cells/μL. In series [6], this substance gave an ALT of 1056 IU/L, an AST of 582 IU/L, a Bilirubin of 0.22 mg/dL and a Cholesterol of 109 mg/dL.
Consider “ISIS 445513, (antisense GCAGCGGACGGCATTGGTGC; 6-8-6 MOE gapmer, further chemistry not given here)”, for which, in series [7], the HCT is on record as 50%, the RBC was found to be 9.8, the WBC is on record as 7 and the hemoglobin came to 15.0 g/dL.
On to “ISIS 416865: MOE gapmer, nucleobases 1275 to 1318 of SEQ ID NO: 1 (Table 8) (antisense TGGCAGCGGACGGCATTGGT; MOE gapmer, wing and gap sizes not given here)”, for which, in series [2], the BUN is given as 20 mg/dL. In series [4], the HCT is reported as 50%, the Lymphocyte came out at 5148 cells/μL, the Neutrophil was 1227 cells/μL and the Platelets is recorded as 872 10^3/μL. Moreover, in series [4], the RBC is 9 10^6/μL, the WBC is on record as 7 10^3/μL, the hemoglobin is given as 14 g/dL and the monocytes is listed as 315 cells/μL. In series [6], this substance returned an ALT of 383 IU/L, an AST of 262 IU/L, a Bilirubin of 0.27 mg/dL and a Cholesterol of 95 mg/dL.
For “ISIS 416862: MOE gapmer, nucleobases 1275 to 1318 of SEQ ID NO: 1 (Table 8) (antisense AGCGGACGGCATTGGTGCAC; MOE gapmer, wing and gap sizes not given here)”, the BUN in series [2] amounted to 21 mg/dL. Further, in series [4], the HCT was determined as 49%, the Lymphocyte turned out to be 4445 cells/μL, the Neutrophil is 1118 cells/μL and the Platelets is on record as 1007 10^3/μL. Also, in series [4], the RBC was 9 10^6/μL, the WBC is on record as 6 10^3/μL, the hemoglobin worked out at 14 g/dL and the monocytes was found to be 174 cells/μL. In series [6], this substance came in with an ALT of 225 IU/L, an AST of 172 IU/L, a Bilirubin of 0.36 mg/dL and a Cholesterol of 103 mg/dL.
The substance “ISIS 416855: MOE gapmer, nucleobases 1275 to 1318 of SEQ ID NO: 1 (Table 8) (antisense CATTGGTGCACAGTTTCTGG; MOE gapmer, wing and gap sizes not given here)” showed a BUN in series [2] of 23 mg/dL. For the same substance, in series [4], the HCT is recorded as 50%, the Lymphocyte was 4236 cells/μL, the Neutrophil turned out to be 1443 cells/μL and the Platelets is on record as 784 10^3/μL. In series [4], the RBC is reported as 9 10^6/μL, the WBC is 6 10^3/μL, the hemoglobin came to 14 g/dL and the monocytes stood at 263 cells/μL. Moreover, in series [6], the ALT turned out to be 786 IU/L, the AST turned out to be 580 IU/L, the Bilirubin amounted to 0.25 mg/dL and the Cholesterol was 162 mg/dL.
Consider “ISIS 416853: MOE gapmer, nucleobases 1275 to 1318 of SEQ ID NO: 1 (Table 8) (antisense TTGGTGCACAGTTTCTGGCA; MOE gapmer, wing and gap sizes not given here)”, for which the BUN in series [2] is on record as 22 mg/dL. In addition, in series [4], the HCT stood at 56%, the Lymphocyte stood at 5184 cells/μL, the Neutrophil is on record as 2040 cells/μL and the Platelets is on record as 801 10^3/μL. Besides, in series [4], the RBC is 11 10^6/μL, the WBC is listed as 8 10^3/μL, the hemoglobin is 17 g/dL and the monocytes came out at 225 cells/μL. In series [6], this substance showed an ALT of 1023 IU/L, an AST of 1087 IU/L, a Bilirubin of 0.25 mg/dL and a Cholesterol of 164 mg/dL.
